Data on one compound can be found in US20230087196A1, “Application of circIKBKB Inhibitors and Test Reagents thereof in Diagnosis, Treatment and Prognosis Kits for Breast Cancer Bone Metastasis” (SUN YAT-SEN UNIVERSITY CANCER CENTER, priority 2021, published 2023).

In experiment [1] the test system is SCP2 cells. Kind of experiment: In vivo bone metastasis prevention model: SCP2 cells into left ventricle of nude mice, eIF4A3-IN-2 intragastric from the second day. Particulars: 1 mg/kg intragastric from the second day after SCP2 injection, vs vehicle. As to the method:
Experiment 2: SCP2 cells were injected into the left ventricle of nude mice (1*10^6 cells/mouse), and eIF4A3-IN-2 (1 mg/kg) was administered to the mice by intragastric administration from the second day. The mice were sacrificed after 60 days, and hindlimbs of the mice were taken for μCT analysis, H&E and TRAP staining.

Experiment [2] relates to SCP2 cells. Kind of experiment: In vivo established bone metastasis model: SCP2 cells into left ventricle of nude mice, eIF4A3-IN-2 started when bone-metastatic tumors formed. Particulars: 1 mg/kg intragastric, started when BLI signal reached 2×10^7 p/sec/cm^2/sr, after 5 weeks treatment, vs vehicle. As to the method:
Experiment 3: SCP2 cells were injected into the left ventricle of nude mice (1*10^6 cells/mouse). eIF4A3-IN-2 (1 mg/kg) treatment via intragastric administration was started when bioluminescence signal of bone-metastatic tumors reached 2×10^7 p/sec/cm^2/sr. The mice were sacrificed after 60 days, and the hindlimbs of the mice were taken for μCT analysis, H&E and TRAP staining.

For `O=C(c1cnn2cc(Br)ccc12)N1CCN(C(=O)c2ccc(Br)cc2)[C@@H](c2ccc(Cl)cc2)C1` [eIF4A3-IN-2], in the experiment with SCP2 cells [1], the “number of TRAP+-osteoclasts in bone surface area” value was “less”; the “onsets of bone-metastases and bone-metastasis burden” value is “significantly delayed”; the osteolytic areas entry is “less”. Besides, in the experiment with SCP2 cells [2], the bone-metastatic tumor burden entry is reported as “decreased” and the “onsets of bone metastases” value was “dramatically reduced”.
